Measurements: patent publication EP3131902B1, “COMPOUNDS AS MODULATORS OF ROR GAMMA” (Boehringer Ingelheim International GmbH, priority 2014, dated 2015)

target: T1, RORγ (Homo sapiens, UniProt P51449); test: Reporter Gene Assay (RGA): nuclear receptor transactivation assay, inhibition of RORγ transactivation of a luciferase reporter in transiently transfected HEK 293 cells; format: cell-based; details: not given
T1 construct: expressed in transfected cells; host or cells: HEK 293 cells, transiently transfected
T1 sequence (P51449 269-508 limits assumed): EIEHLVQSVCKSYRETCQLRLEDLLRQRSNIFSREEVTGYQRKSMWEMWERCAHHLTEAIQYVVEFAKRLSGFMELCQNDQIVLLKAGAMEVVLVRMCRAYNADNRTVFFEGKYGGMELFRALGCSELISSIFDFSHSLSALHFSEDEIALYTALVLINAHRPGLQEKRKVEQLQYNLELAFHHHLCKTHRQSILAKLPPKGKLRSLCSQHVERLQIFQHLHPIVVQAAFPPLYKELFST

SMILES	IC50 [nM]
CCS(=O)(=O)c1ccc(CNc2nc3cnc(-c4c(OC)ncnc4C4CC4)nc3n(CC(C)(C)F)c2=O)nc1 [Example 106]	1150
CC[C@H](C)n1c(=O)c(NCc2ccc(S(N)(=O)=O)cn2)nc2cnc(-c3c(OC)ncnc3C3CC3)nc21 [Example 122]	150
CCS(=O)(=O)c1ccc(CNc2nc3cnc(-c4c(C)ncnc4C4CC4)nc3n([C@@H](C)C(F)(F)F)c2=O)cc1 [Example 177]	73
CCS(=O)(=O)N1C[C@@H]2C(CNc3nc4cnc(-c5c(C)ncnc5C5CC5)nc4n([C@@H](C)C4CC4)c3=O)[C@@H]2C1 (stereo partly drawn) [Example 163]	160
CCS(=O)(=O)c1ccc(CNc2nc3cnc(-c4c(C5CC5)ncnc4C4CC4)nc3n(C3CC3)c2=O)cc1 [Example 38]	1100

same assay, conditions: read-out: RGA IC50

SMILES	IC50 [nM]
CCS(=O)(=O)c1ccc(CNc2nc3cnc(-c4c(C)ncnc4C(C)C)nc3n(C(C)C)c2=O)nc1 [Example 178]	240
COc1ncnc(C2CC2)c1-c1ncc2nc(NCc3ccc(S(C)(=O)=O)cn3)c(=O)n(C3CCC3)c2n1 [Example 241]	310
CCS(=O)(=O)c1ccc(CNc2nc3cnc(-c4c(OC)ncnc4C4CC4)nc3n(CC(C)C)c2=O)cn1 [Example 154]	295
CCS(=O)(=O)c1ccc(CNc2nc3cnc(-c4c(OC)ncnc4C4CC4)nc3n(C3CCCC3=O)c2=O)nc1 (stereo not drawn) [Example 120]	420
CCS(=O)(=O)c1ccc(CNc2nc3cnc(-c4c(OC)ncnc4C4CC4)nc3n(C3(C#N)CC3)c2=O)nc1 [Example 50]	4400
Cc1ncnc(C2CC2)c1-c1ncc2nc(NCc3ccc(S(C)(=N)=O)cc3)c(=O)n([C@@H](C)C3CC3)c2n1 (stereo partly drawn) [Example 160]	285
CCS(=O)(=O)c1ccc(CNc2nc3cnc(-c4c(C)ncnc4C4CC4)nc3n([C@H](C)C(C)C)c2=O)nc1 [Example 67]	370
Cc1ncnc(C2CC2)c1-c1ncc2nc(NCc3ccc(S(N)(=O)=O)cn3)c(=O)n(CC(C)C)c2n1 [Example 254]	455
CC[C@@H](C)n1c(=O)c(NCc2ccc(S(N)(=O)=O)cn2)nc2cnc(-c3c(C)ncnc3C3CC3)nc21 [Example 235]	425
COc1cc(C#N)ccc1CNc1nc2cnc(-c3c(C)ncnc3C3CC3)nc2n([C@@H](C)C2CC2)c1=O [Example 133]	1040
CCc1nc(N)nc(C2CC2)c1-c1ncc2nc(NCc3ccc(S(=O)(=O)C4CC4)cn3)c(=O)n([C@@H](C)C3CC3)c2n1 [Example 251]	158
COc1ncnc(C2CC2)c1-c1ncc2nc(NCc3ccc(S(N)(=O)=O)cc3)c(=O)n(C(C)C)c2n1 [Example 151]	255
CCS(=O)(=O)c1ccc(CNc2nc3cnc(-c4c(C)ncnc4C4CC4)nc3n([C@H]3CCC[C@H]3C#N)c2=O)nc1 [Example 111]	460
CCC(C)n1c(=O)c(NCc2ccc(S(C)(=O)=O)cc2)nc2cnc(-c3c(OC)ncnc3C3CC3)nc21 (stereo not drawn) [Example 26]	420
CC[C@H](C)n1c(=O)c(NCc2ccc(S(N)(=O)=O)cn2)nc2cnc(-c3c(C)ncnc3C3CC3)nc21 [Example 98]	195
CNS(=O)(=O)c1ccc(CNc2nc3cnc(-c4c(C)ncnc4C4CC4)nc3n([C@@H](C)C3CC3)c2=O)cc1 [Example 135]	240
Cc1ncnc(C2CC2)c1-c1ncc2nc(NCc3ccc(S(=O)(=O)CC#N)cc3)c(=O)n(C(C)C)c2n1 [Example 171]	200
CC[C@@H](C)n1c(=O)c(NCc2ccc(S(=O)(=O)CC)nc2)nc2cnc(-c3c(C4CC4)ncnc3C3CC3)nc21 [Example 224]	120
COc1ncnc(C2CC2)c1-c1ncc2nc(NCc3ccc(S(N)(=O)=O)cn3)c(=O)n(CC(C)C)c2n1 [Example 255]	285
CCS(=O)(=O)c1sc(CNc2nc3cnc(-c4c(C)ncnc4C4CC4)nc3n([C@@H](C)C3CC3)c2=O)nc1C [Example 114]	107

SMILES	IC50 [nM]
CC[C@@H](C)n1c(=O)c(NCc2ccc(S(N)(=O)=O)cn2)nc2cnc(-c3c(OC)ncnc3C3CC3)nc21 [Example 236]	185
CCS(=O)(=O)c1cnc(CNc2nc3cnc(-c4c(C)ncnc4C4CC4)nc3n([C@@H](C)C(F)(F)F)c2=O)nc1 [Example 188]	315
CCS(=O)(=O)c1ccc(CNc2nc3cnc(-c4c(C5CC5)ncnc4C4CC4)nc3n(C3CCCC3)c2=O)nc1 [Example 13]	300
CCS(=O)(=O)c1ccc(CNc2nc3cnc(-c4c(OC)ncnc4C4CC4)nc3n([C@H]3C[C@@H]3C(F)(F)F)c2=O)nc1 (stereo in doubt) [Example 110]	1350
CCCc1ncnc(C)c1-c1ncc2nc(NCc3ccc(S(=O)(=O)CC)cn3)c(=O)n(C(C)C)c2n1 [Example 172]	440
CCS(=O)(=O)c1ccc(CNc2nc3cnc(-c4c(OC)ncnc4C4CC4)nc3n([C@H]3CCC[C@@H]3C#N)c2=O)nc1 [Example 109]	790
Cc1ncnc(C2CC2)c1-c1ncc2nc(NCc3ccc4c(c3)CCS4(=O)=O)c(=O)n([C@@H](C)C3CC3)c2n1 [Example 212]	120
COc1ncnc(C2CC2)c1-c1ncc2nc(NCc3ccc(S(C)(=O)=O)cc3)c(=O)n([C@H]3CCC[C@@H]3OC)c2n1 [Example 230]	270
CNS(=O)(=O)c1ccc(CNc2nc3cnc(-c4c(OC)ncnc4C4CC4)nc3n(C3CCC3)c2=O)nc1 [Example 239]	205
CCS(=O)(=O)c1ccc(CNc2nc3cnc(-c4c(OC)ncnc4C4CC4)nc3n(C3CC3)c2=O)cc1 [Example 43]	2600
CC(=O)N1CCC(CNc2nc3cnc(-c4c(C)ncnc4C4CC4)nc3n([C@@H](C)C3CC3)c2=O)CC1 [Example 166]	1600
CCS(=O)(=O)N1CC2(CC(CNc3nc4cnc(-c5c(OC)ncnc5C5CC5)nc4n([C@@H](C)C4CC4)c3=O)C2)C1 [Example 152]	470
CCS(=O)(=O)N1CCC(CNc2nc3cnc(-c4c(C)ncnc4C4CC4)nc3n(C(C)C)c2=O)CC1 [Example 130]	285
Cc1ncnc(C2CC2)c1-c1ncc2nc(NCc3ccc(S(C)(=N)=O)cc3)c(=O)n([C@@H](C)C3CCC3)c2n1 (stereo partly drawn) [Example 232]	180
CCS(=O)(=O)c1ccc(CNc2nc3cnc(-c4c(C5CC5)ncnc4C4CC4)nc3n(C3CC3)c2=O)cn1 [Example 51]	7600
CC[C@@H](C)n1c(=O)c(NCc2ncc(S(=O)(=O)CC)cn2)nc2cnc(-c3c(C4CC4)ncnc3C3CC3)nc21 [Example 186]	150
CCS(=O)(=O)c1ccc(CNc2nc3cnc(-c4c(C)ncnc4C4CC4)nc3n(-c3ccccc3)c2=O)nc1 [Example 48]	3800
CCC(CC)n1c(=O)c(NCc2ccc(S(=O)(=O)CC)cn2)nc2cnc(-c3c(C4CC4)ncnc3C3CC3)nc21 [Example 16]	320
Cc1ncnc(C2CC2)c1-c1ncc2nc(NCC3CCN(S(=O)(=O)CC#N)CC3)c(=O)n([C@@H](C)C3CC3)c2n1 [Example 165]	157
CCC(C)n1c(=O)c(NCc2ccc(S(C)(=O)=O)cc2)nc2cnc(-c3c(C)ncnc3C3CC3)nc21 (stereo not drawn) [Example 14]	310

SMILES	IC50 [nM]
CCS(=O)(=O)N1CCC(CNc2nc3cnc(-c4c(OC)ncnc4C4CC4)nc3n(C(C)C)c2=O)CC1 [Example 131]	205
CCS(=O)(=O)c1ccc(CNc2nc3cnc(-c4c(C5CC5)ncnc4C4CC4)nc3n([C@@H](C)C(C)C)c2=O)nc1 [Example 7]	280
CCS(=O)(=O)c1ccc(CNc2nc3cnc(-c4c(C)ncnc4C4CC4)nc3n([C@H]3CCC[C@@H]3C#N)c2=O)nc1 [Example 112]	920
CCc1ncnc(C2CC2)c1-c1ncc2nc(NCc3ccc(S(=O)(=O)CC)cn3)c(=O)n(C3CCCC3)c2n1 [Example 3]	230
CCS(=O)(=O)c1ccc(CNc2nc3cnc(-c4c(C)nc(N)nc4C4CC4)nc3n([C@@H](C)C3CC3)c2=O)nc1 [Example 217]	160
CCS(=O)(=O)c1ccc(CNc2nc3cnc(-c4c(C)ncnc4C4CC4)nc3n([C@@H](C)C(C)C)c2=O)nc1 [Example 66]	410
CCS(=O)(=O)c1ccc(CNc2nc3cnc(-c4c(OC)ncnc4C4CC4)nc3n([C@H]3CCC[C@H]3C#N)c2=O)nc1 [Example 108]	300
Cc1ncnc(C2CC2)c1-c1ncc2nc(NCc3ccc(S(C)(=O)=O)cn3)c(=O)n(CC3CC3)c2n1 [Example 247]	385
CC[C@@H](C)n1c(=O)c(NCc2ccc(S(=O)(=O)CC)cn2)nc2cnc(-c3c(C)ncnc3C3CC3)nc21 [Example 84]	400
CO[C@H]1CCC[C@@H]1n1c(=O)c(NCc2ccc(S(C)(=O)=O)cc2)nc2cnc(-c3c(C)ncnc3C3CC3)nc21 [Example 229]	530
CCS(=O)(=O)c1ccc(CNc2nc3cnc(-c4c(C)ncnc4C4CC4)nc3n(C3CCCC3=O)c2=O)nc1 (stereo not drawn) [Example 119]	720
CCS(=O)(=O)c1ccc(CNc2nc3cnc(-c4c(C)ncnc4C4CC4)nc3n(CC(C)C)c2=O)nc1 [Example 252]	325
CC[C@@H](C)n1c(=O)c(NCc2ccc(S(N)(=O)=O)cn2)nc2cnc(-c3c(C)nc(N)nc3C3CC3)nc21 [Example 129]	2500
CCS(=O)(=O)c1ccc(CNc2nc3cnc(-c4c(C5CC5)ncnc4C4CC4)nc3n([C@@H](C)C3CC3)c2=O)nc1 [Example 73]	290
CC[C@H](C)n1c(=O)c(NCc2ccc(S(=O)(=O)CC)cn2)nc2cnc(-c3c(C)ncnc3C3CC3)nc21 [Example 20]	330
CCS(=O)(=O)c1cnc(CNc2nc3cnc(-c4c(OC)ncnc4C4CC4)nc3n([C@@H](C)C(F)(F)F)c2=O)nc1 [Example 187]	255
COC(=O)c1ccc(CNc2nc3cnc(-c4c(C)ncnc4C4CC4)nc3n([C@@H](C)C3CC3)c2=O)cc1 [Example 216]	1380
CCS(=O)(=O)c1ccc(CNc2nc3cnc(-c4c(C5CC5)ncnc4C4CC4)nc3n([C@H](C)C(C)C)c2=O)nc1 [Example 25]	410
